Source: patent publication US20240217978A1 (CHONG KUN DANG PHARMACEUTICAL CORP., priority 2021, published 2024)
pIC50: −log10 of the molar value.

Molecular target: human adenosine A2a receptor (Homo sapiens (Human), UniProt P29274)
Assay: A2a receptor binding affinity, [3H]-NECA radioligand binding test
Details: [3H]-NECA 37 nM; membrane from HEK-293 cells transfected with human adenosine A2a receptor
Method in brief: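 IC50 values (μM) come from displacement of [3H]-NECA, used at 37 nM final, on human A2a receptor membranes from transfected HEK-293 cells. Incubation lasted one hour at room temperature in Tris/MgCl2/EDTA buffer, pH 7.4; filter-bound radioactivity was counted by scintillation.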

Chain of human adenosine A2a receptor (P29274 whole entry): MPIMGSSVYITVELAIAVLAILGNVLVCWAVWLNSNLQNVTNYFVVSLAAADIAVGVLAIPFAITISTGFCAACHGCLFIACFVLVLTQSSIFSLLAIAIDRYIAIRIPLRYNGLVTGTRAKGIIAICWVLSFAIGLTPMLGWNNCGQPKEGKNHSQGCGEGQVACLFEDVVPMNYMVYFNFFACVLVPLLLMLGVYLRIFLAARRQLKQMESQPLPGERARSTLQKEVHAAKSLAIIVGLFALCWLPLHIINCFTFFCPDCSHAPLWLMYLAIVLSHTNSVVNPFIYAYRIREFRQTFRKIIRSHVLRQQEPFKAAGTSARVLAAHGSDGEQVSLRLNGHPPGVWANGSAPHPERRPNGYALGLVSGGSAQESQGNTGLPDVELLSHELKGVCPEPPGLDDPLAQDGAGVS

SMILES | pIC50
Cc1ccc(-c2nc3nc(N4CCC[C@H]4C(=O)N4CCC(C5CCN(CC(F)(F)F)CC5)CC4)nc(N)n3n2)o1 [Example 197, (S)-(1-(7-amino-2-(5-methylfuran-2-yl)-[1,2,4]triazolo[1,5-a][1,3,5]triazin-5-yl)pyrrolidin-2-yl)(1′-(2,2,2-trifluoroethyl)-[4,4′-bipiperidin]-1-yl)methanone] | 8.52
Cc1ccc(-c2nc3nc(N4CCC[C@H]4C(=O)N4CCN(c5ccccc5)C(=O)C4)nc(N)n3n2)o1 [Example 198, 4-((7-amino-2-(5-methylfuran-2-yl)-[1,2,4]triazolo[1,5-a][1,3,5]triazin-5-yl)-L-prolyl)-1-phenylpiperazin-2-one] | 8.10
Cc1ccc(-c2nc3nc(N4CCC[C@H]4C(=O)N4CCN(c5ccccc5)CC4)nc(N)n3n2)o1 [Example 199, (S)-(1-(7-amino-2-(5-methylfuran-2-yl)-[1,2,4]triazolo[1,5-a][1,3,5]triazin-5-yl)pyrrolidin-2-yl)(4-phenylpiperazin-1-yl)methanone] | 8.70
Cc1ccc(-c2nc3nc(N4CCC[C@H]4C(=O)N4CCN(c5ccccc5C(F)(F)F)CC4)nc(N)n3n2)o1 [Example 200, (S)-(1-(7-amino-2-(5-methylfuran-2-yl)-[1,2,4]triazolo[1,5-a][1,3,5]triazin-5-yl)pyrrolidin-2-yl)(4-(2-(trifluoromethyl)phenyl)piperazin-1-yl)methanone] | 9.00
Cc1ccc(-c2nc3nc(N4CCC[C@H]4C(=O)N4CCC(c5ccc(F)cc5F)CC4)nc(N)n3n2)o1 [Example 201, (S)-(1-(7-amino-2-(5-methylfuran-2-yl)-[1,2,4]triazolo[1,5-a][1,3,5]triazin-5-yl)pyrrolidin-2-yl)(4-(2,4-difluorophenyl)piperidin-1-yl) methanone] | 8.30
Cc1ccc(-c2nc3nc(N4CCC[C@H]4C(=O)N4CCN(c5nccs5)CC4)nc(N)n3n2)o1 [Example 202, 2-(4-((7-amino-2-(5-methylfuran-2-yl)-[1,2,4]triazolo[1,5-a][1,3,5]triazin-5-yl)-L-prolyl)piperazin-1-yl)thiazole] | 8.15
Cc1ccc(-c2nc3nc(N4CCC[C@H]4C(=O)N4CCN(c5ncccn5)CC4)nc(N)n3n2)o1 [Example 203, (S)-(1-(7-amino-2-(5-methylfuran-2-yl)-[1,2,4]triazolo[1,5-a][1,3,5]triazin-5-yl)pyrrolidin-2-yl)(4-(pyrimidin-2-yl)piperazin-1-yl)methanone] | 8.22
Nc1nc(N2CCC[C@H]2C(=O)N2CC3CCC(C2)N3CC(F)(F)F)nc2nc(-c3ccco3)nn12 [Example 204, ((S)-1-(7-amino-2-(furan-2-yl)-[1,2,4]triazolo[1,5-a][1,3,5]triazin-5-yl)pyrrolidin-2-yl)(8-(2,2,2-trifluoroethyl)-3,8-diazabicyclo[3.2.1]octan-3-yl)methanone] | 7.89
C[C@@H]1CN(CC(F)(F)F)CCN1C(=O)[C@@H]1CCCN1c1nc(N)n2nc(-c3ccco3)nc2n1 [Example 205, ((S)-1-(7-amino-2-(furan-2-yl)-[1,2,4]triazolo[1,5-a][1,3,5]triazin-5-yl)pyrrolidin-2-yl)((R)-2-methyl-4-(2,2,2-trifluoroethyl)piperazin-1-yl)methanone] | 8.15
Nc1nc(N2CCC[C@H]2C(=O)N2CCC(C3CCN(CC(F)(F)F)CC3)CC2)nc2nc(-c3ccco3)nn12 [Example 206, (S)-(1-(7-amino-2-(furan-2-yl)-[1,2,4]triazolo[1,5-a][1,3,5]triazin-5-yl)pyrrolidin-2-yl)(1′-(2,2,2-trifluoroethyl)-[4,4′-bipiperidin]-1-yl)methanone] | 9.00
Cc1ccc(-c2nc3nc(N4CC[C@H]4C(=O)N4CCN(C(=O)c5ccccc5)CC4)nc(N)n3n2)o1 [Example 207, (S)-(1-(7-amino-2-(5-methylfuran-2-yl)-[1,2,4]triazolo[1,5-a][1,3,5]triazin-5-yl)azetidin-2-yl)(4-benzoylpiperazin-1-yl)methanone] | 7.96
Cc1ccc(-c2nc3nc(N4CC[C@H]4C(=O)N4CCN(Cc5ccc(F)cc5F)CC4)nc(N)n3n2)o1 [Example 208, (S)-(1-(7-amino-2-(5-methylfuran-2-yl)-[1,2,4]triazolo[1,5-a][1,3,5]triazin-5-yl)azetidin-2-yl)(4-(2,4-difluorobenzyl)piperazin-1-yl)methanone] | 8.52
Cc1ccc(-c2nc3nc(N4CC[C@H]4C(=O)N4CCN(c5ccc(F)cc5F)CC4)nc(N)n3n2)o1 [Example 209, (S)-(1-(7-amino-2-(5-methylfuran-2-yl)-[1,2,4]triazolo[1,5-a][1,3,5]triazin-5-yl)azetidin-2-yl)(4-(2,4-difluorophenyl)piperazin-1-yl)methanone] | 9.00
Cc1ccc(-c2nc3nc(N4CC[C@H]4C(=O)N4CCN(c5ncccn5)CC4)nc(N)n3n2)o1 [Example 210, (S)-(1-(7-amino-2-(5-methylfuran-2-yl)-[1,2,4]triazolo[1,5-a][1,3,5]triazin-5-yl)azetidin-2-yl)(4-(pyrimidin-2-yl)piperazin-1-yl)methanone] | 9.00
CC[C@H](Nc1nc(N)n2nc(-c3ccco3)nc2n1)C(=O)N1CCN(CC(F)(F)F)CC1 [Example 211, (S)-2-((7-amino-2-(furan-2-yl)-[1,2,4]triazolo[1,5-a][1,3,5]triazin-5-yl)amino)-1-(4-(2,2,2-trifluoroethyl)piperazin-1-yl)butan-1-one] | 7.82
CCC[C@H](Nc1nc(N)n2nc(-c3ccco3)nc2n1)C(=O)N1CCN(CC(F)(F)F)CC1 [Example 212, (S)-2-((7-amino-2-(furan-2-yl)-[1,2,4]triazolo[1,5-a][1,3,5]triazin-5-yl)amino)-1-(4-(2,2,2-trifluoroethyl)piperazin-1-yl)pentan-1-one] | 7.92
CCCC[C@H](Nc1nc(N)n2nc(-c3ccco3)nc2n1)C(=O)N1CCN(CC(F)(F)F)CC1 [Example 213, (S)-2-((7-amino-2-(furan-2-yl)-[1,2,4]triazolo[1,5-a][1,3,5]triazin-5-yl)amino)-1-(4-(2,2,2-trifluoroethyl)piperazin-1-yl)hexan-1-one] | 8.15
CCC(C)[C@H](Nc1nc(N)n2nc(-c3ccco3)nc2n1)C(=O)N1CCN(CC(F)(F)F)CC1 (stereo partly drawn) [Example 214, (2S)-2-((7-amino-2-(furan-2-yl)-[1,2,4]triazolo[1,5-a][1,3,5]triazin-5-yl)amino)-3-methyl-1-(4-(2,2,2-trifluoroethyl)piperazin-1-yl)pentan-1-one] | 8.30
CC(C)C[C@H](Nc1nc(N)n2nc(-c3ccco3)nc2n1)C(=O)N1CCN(CC(F)(F)F)CC1 [Example 215, (S)-2-((7-amino-2-(furan-2-yl)-[1,2,4]triazolo[1,5-a][1,3,5]triazin-5-yl)amino)-4-methyl-1-(4-(2,2,2-trifluoroethyl)piperazin-1-yl)pentan-1-one] | 8.10
Nc1nc(N[C@H](C(=O)N2CCN(CC(F)(F)F)CC2)C2CC2)nc2nc(-c3ccco3)nn12 [Example 216, (S)-2-((7-amino-2-(furan-2-yl)-[1,2,4]triazolo[1,5-a][1,3,5]triazin-5-yl)amino)-2-cyclopropyl-1-(4-(2,2,2-trifluoroethyl)piperazin-1-yl)ethan-1-one] | 7.74
Nc1nc(N[C@H](C(=O)N2CCN(CC(F)(F)F)CC2)C2CCCC2)nc2nc(-c3ccco3)nn12 [Example 217, (S)-2-((7-amino-2-(furan-2-yl)-[1,2,4]triazolo[1,5-a][1,3,5]triazin-5-yl)amino)-2-cyclopentyl-1-(4-(2,2,2-trifluoroethyl)piperazin-1-yl)ethan-1-one] | 8.52
Cc1ccc(-c2nc3nc(N4CC[C@H]4C(=O)N4CCN(Cc5ccccc5)CC4)nc(N)n3n2)o1 [Example 218, (S)-(1-(7-amino-2-(5-methylfuran-2-yl)-[1,2,4]triazolo[1,5-a][1,3,5]triazin-5-yl)azetidin-2-yl)(4-benzylpiperazin-1-yl)methanone] | 8.00
Cc1ccc(-c2nc3nc(N4CC[C@H]4C(=O)N4CCN(C5CCCCC5)CC4)nc(N)n3n2)o1 [Example 219, (S)-(1-(7-amino-2-(5-methylfuran-2-yl)-[1,2,4]triazolo[1,5-a][1,3,5]triazin-5-yl)azetidin-2-yl)(4-cyclohexylpiperazin-1-yl)methanone] | 8.52
Cc1ccc(-c2nc3nc(N4CC[C@H]4C(=O)N4CCN(CC(F)(F)F)CC4)nc(N)n3n2)o1 [Example 220, (S)-(1-(7-amino-2-(5-methylfuran-2-yl)-[1,2,4]triazolo[1,5-a][1,3,5]triazin-5-yl)azetidin-2-yl)(4-(2,2,2-trifluoroethyl)piperazin-1-yl)methanone] | 7.82
COCCN1CCN(C(=O)[C@@H]2CCN2c2nc(N)n3nc(-c4ccc(C)o4)nc3n2)CC1 [Example 221, (S)-(1-(7-amino-2-(5-methylfuran-2-yl)-[1,2,4]triazolo[1,5-a][1,3,5]triazin-5-yl)azetidin-2-yl)(4-(2-methoxyethyl)piperazin-1-yl) methanone] | 8.00
CCCCN1CCN(C(=O)[C@@H]2CCN2c2nc(N)n3nc(-c4ccc(C)o4)nc3n2)CC1 [Example 222, (S)-(1-(7-amino-2-(5-methylfuran-2-yl)-[1,2,4]triazolo[1,5-a][1,3,5]triazin-5-yl)azetidin-2-yl)(4-butylpiperazin-1-yl)methanone] | 8.10
Nc1nc(N2CCC[C@H]2C(=O)N2CCN(CC(F)F)CC2)nc2nc(-c3ccco3)nn12 [Example 223, (S)-(1-(7-amino-2-(furan-2-yl)-[1,2,4]triazolo[1,5-a][1,3,5]triazin-5-yl)pyrrolidin-2-yl)(4-(2,2-difluoroethyl)piperazin-1-yl)methanone] | 8.15
CC(F)(F)CN1CCN(C(=O)[C@@H]2CCCN2c2nc(N)n3nc(-c4ccco4)nc3n2)CC1 [Example 224, (S)-(1-(7-amino-2-(furan-2-yl)-[1,2,4]triazolo[1,5-a][1,3,5]triazin-5-yl)pyrrolidin-2-yl)(4-(2,2-difluoropropyl)piperazin-1-yl)methanone] | 8.22
